The results in this text go back to patent US8614201B2 (Janssen Pharmaceutica NV, priority 2009, dated 2013).

As a reminder, the IC50 is the concentration at which inhibition is half-maximal.

The target of the test is Human TRPA1 (Homo sapiens, UniProt O75762). Nature of the test: Assay 1: In vitro cellular testing of TRPA1 modulation (CHO-TREx, Fluo-3 calcium fluorescence, AITC agonist). Also noted: expressed in transfected cells; host or cells: CHO-TREx cells (Invitrogen), vector pcDNA4/TO. The class given is cell-based. The conditions noted are these: CHO-TREx cells expressing human TRPA1; Fluo-3 fluorescence (FLIPR/Tetra); agonist 15 μM allyl isothiocyanate (AITC); 30 minute antagonist incubation. Summed up: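 Tetracycline-induced CHO-TREx cells stably expressing human TRPA1, loaded with 4 μM Fluo-3 AM, preincubated 30 min with compound (serial dilution typically from 10 μM, three-fold steps) in HEPES saline pH 7.4. Fluorescence change over 3 min after 15 μM AITC; IC50 from Hill fit versus no-antagonist and 10 μM ruthenium red controls.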
Human TRPA1, sequence (O75762 whole entry): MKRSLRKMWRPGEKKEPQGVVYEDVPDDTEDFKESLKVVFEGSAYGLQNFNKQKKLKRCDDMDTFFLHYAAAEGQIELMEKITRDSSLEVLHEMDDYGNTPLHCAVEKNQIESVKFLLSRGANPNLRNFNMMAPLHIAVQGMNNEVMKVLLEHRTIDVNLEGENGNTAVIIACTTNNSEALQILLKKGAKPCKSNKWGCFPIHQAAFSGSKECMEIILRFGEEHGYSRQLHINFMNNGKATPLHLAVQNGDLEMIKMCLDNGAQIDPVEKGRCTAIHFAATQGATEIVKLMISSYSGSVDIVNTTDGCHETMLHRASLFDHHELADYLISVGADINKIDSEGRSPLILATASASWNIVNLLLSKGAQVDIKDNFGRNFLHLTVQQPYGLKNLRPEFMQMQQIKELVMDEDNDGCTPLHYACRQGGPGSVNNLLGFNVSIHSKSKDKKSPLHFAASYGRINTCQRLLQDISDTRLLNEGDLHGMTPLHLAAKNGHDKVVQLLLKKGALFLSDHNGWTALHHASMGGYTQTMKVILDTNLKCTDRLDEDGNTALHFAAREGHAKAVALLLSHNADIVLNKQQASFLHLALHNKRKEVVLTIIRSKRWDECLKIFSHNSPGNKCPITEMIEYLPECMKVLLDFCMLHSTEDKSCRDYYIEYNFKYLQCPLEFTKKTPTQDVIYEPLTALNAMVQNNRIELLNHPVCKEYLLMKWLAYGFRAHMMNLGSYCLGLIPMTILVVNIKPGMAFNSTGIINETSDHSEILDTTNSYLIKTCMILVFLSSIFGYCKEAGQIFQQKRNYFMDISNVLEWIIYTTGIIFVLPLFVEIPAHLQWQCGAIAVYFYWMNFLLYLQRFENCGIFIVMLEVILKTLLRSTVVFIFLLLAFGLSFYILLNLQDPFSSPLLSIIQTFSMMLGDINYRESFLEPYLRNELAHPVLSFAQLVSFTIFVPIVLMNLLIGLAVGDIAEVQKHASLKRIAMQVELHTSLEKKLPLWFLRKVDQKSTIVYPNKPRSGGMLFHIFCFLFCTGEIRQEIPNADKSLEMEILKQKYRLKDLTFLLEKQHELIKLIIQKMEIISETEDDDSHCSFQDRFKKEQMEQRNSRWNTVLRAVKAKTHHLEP

In the case of `CC(Nc1cc(CNC(=O)[C@@H]2CCCN2S(=O)(=O)c2ccc(F)cc2)cc(-c2ccc(C(F)(F)F)cc2)n1)c1ccncc1` (stereo partly drawn) [Example 402, 1-[(4-Fluorophenyl)sulfonyl]-N-({2-[(1-pyridin-4-ylethyl)amino]-6-[4-(trifluoromethyl)phenyl]pyridin-4-yl}methyl)-L-prolinamide], the IC50 came out at 594 nM.
For `CC(Nc1cc(CNC(=O)[C@@H]2CCCN2S(=O)(=O)c2ccc(Cl)s2)cc(-c2ccc(C(F)(F)F)cc2)n1)c1ccncc1` (stereo partly drawn) [Example 403, 1-[(5-Chlorothiophen-2-yl)sulfonyl]-N-({2-[(1-pyridin-4-ylethyl)amino]-6-[4-(trifluoromethyl)phenyl]pyridin-4-yl}methyl)-L-prolinamide] the value was 466 nM.
Turning to `CC(Nc1cc(CNC(=O)[C@@H]2C=CCN2S(=O)(=O)c2ccc(Cl)s2)cc(-c2ccc(C(F)(F)F)cc2)n1)c1ccncc1` (stereo partly drawn) [Example 404, (2S)-1-[(5-Chlorothiophen-2-yl)sulfonyl]-N-({2-[(1-pyridin-4-ylethyl)amino]-6-[4-(trifluoromethyl)phenyl]pyridin-4-yl}methyl)-2,5-dihydro-1H-pyrrole-2-carboxamide], the IC50 came out at 1910 nM.
In the case of `CC(Nc1cc(CNC(=O)[C@@H]2CCCN2S(=O)(=O)c2ccc(Cl)s2)cc(-c2ccc(C(F)(F)F)cc2)n1)c1cccnc1` (stereo partly drawn) [Example 405, 1-[(5-Chlorothiophen-2-yl)sulfonyl]-N-({2-[(1-pyridin-3-ylethyl)amino]-6-[4-(trifluoromethyl)phenyl]pyridin-4-yl}methyl)-L-prolinamide], the IC50 was determined as 481 nM.
The value for `CC(Nc1cc(CNC(=O)[C@@H]2C=CCN2S(=O)(=O)c2ccc(F)cc2)cc(-c2ccc(C(F)(F)F)cc2)n1)c1ccccc1` (stereo partly drawn) [Example 406, (2S)-1-[(4-Fluorophenyl)sulfonyl]-N-({2-[(1-phenylethyl)amino]-6-[4-(trifluoromethyl)phenyl]pyridin-4-yl}methyl)-2,5-dihydro-1H-pyrrole-2-carboxamide] was 833 nM.
For `CC(Nc1cc(CNC(=O)[C@@H]2C=CCN2S(=O)(=O)c2ccc(Cl)s2)cc(-c2ccc(C(F)(F)F)cc2)n1)c1ccccc1` (stereo partly drawn) [Example 407, (2S)-1-[(5-Chlorothiophen-2-yl)sulfonyl]-N-({2-[(1-phenylethyl)amino]-6-[4-(trifluoromethyl)phenyl]pyridin-4-yl}methyl)-2,5-dihydro-1H-pyrrole-2-carboxamide] the value was 185 nM; for `CC(Nc1cc(CNC(=O)[C@@H]2CCCN2S(=O)(=O)c2ccc(F)cc2)cc(-c2ccc(C(F)(F)F)cc2)n1)c1ccccn1` (stereo partly drawn) [Example 408, 1-[(4-Fluorophenyl)sulfonyl]-N-({2-[(1-pyridin-2-ylethyl)amino]-6-[4-(trifluoromethyl)phenyl]pyridin-4-yl}methyl)-L-prolinamide], 54 nM.
For `CC(Nc1cc(CNC(=O)[C@@H]2CCCN2S(=O)(=O)c2ccc(Cl)s2)cc(-c2ccc(C(F)(F)F)cc2)n1)c1ccccn1` (stereo partly drawn) [Example 409, 1-[(5-Chlorothiophen-2-yl)sulfonyl]-N-({2-[(1-pyridin-2-ylethyl)amino]-6-[4-(trifluoromethyl)phenyl]pyridin-4-yl}methyl)-L-prolinamide] the value was 64 nM.
`CC(Nc1cc(CNC(=O)[C@@H]2CC(F)(F)CN2S(=O)(=O)c2ccc(F)cc2)cc(-c2ccc(C(F)(F)F)cc2)n1)c1ccccc1` (stereo partly drawn) [Example 410, 4,4-Difluoro-1-[(4-fluorophenyl)sulfonyl]-N-({2-[(1-phenylethyl)amino]-6-[4-(trifluoromethyl)phenyl]pyridin-4-yl}methyl)-L-prolinamide]: the IC50 was 1260 nM.
For the compound `CC(Nc1cc(CNC(=O)[C@@H]2CC(F)(F)CN2S(=O)(=O)c2ccc(Cl)s2)cc(-c2ccc(C(F)(F)F)cc2)n1)c1ccccc1` (stereo partly drawn) [Example 411, 1-[(5-Chlorothiophen-2-yl)sulfonyl]-4,4-difluoro-N-({2-[(1-phenylethyl)amino]-6-[4-(trifluoromethyl)phenyl]pyridin-4-yl}methyl)-L-prolinamide], the IC50 came out at 1430 nM.
